# Measurements taken from US9283222B2 (priority 2006, dated 2016).
# Molecular target: Recombinant Human Poly(ADP-Ribose) Polymerase (PARP), PARP-1 (Homo sapiens (Human), UniProt P09874)
# Conditions: read-out: PARP-1 (Ki); Table 1; text calls the values EC50s
# Recombinant Human Poly(ADP-Ribose) Polymerase (PARP), PARP-1, sequence (P09874 whole entry): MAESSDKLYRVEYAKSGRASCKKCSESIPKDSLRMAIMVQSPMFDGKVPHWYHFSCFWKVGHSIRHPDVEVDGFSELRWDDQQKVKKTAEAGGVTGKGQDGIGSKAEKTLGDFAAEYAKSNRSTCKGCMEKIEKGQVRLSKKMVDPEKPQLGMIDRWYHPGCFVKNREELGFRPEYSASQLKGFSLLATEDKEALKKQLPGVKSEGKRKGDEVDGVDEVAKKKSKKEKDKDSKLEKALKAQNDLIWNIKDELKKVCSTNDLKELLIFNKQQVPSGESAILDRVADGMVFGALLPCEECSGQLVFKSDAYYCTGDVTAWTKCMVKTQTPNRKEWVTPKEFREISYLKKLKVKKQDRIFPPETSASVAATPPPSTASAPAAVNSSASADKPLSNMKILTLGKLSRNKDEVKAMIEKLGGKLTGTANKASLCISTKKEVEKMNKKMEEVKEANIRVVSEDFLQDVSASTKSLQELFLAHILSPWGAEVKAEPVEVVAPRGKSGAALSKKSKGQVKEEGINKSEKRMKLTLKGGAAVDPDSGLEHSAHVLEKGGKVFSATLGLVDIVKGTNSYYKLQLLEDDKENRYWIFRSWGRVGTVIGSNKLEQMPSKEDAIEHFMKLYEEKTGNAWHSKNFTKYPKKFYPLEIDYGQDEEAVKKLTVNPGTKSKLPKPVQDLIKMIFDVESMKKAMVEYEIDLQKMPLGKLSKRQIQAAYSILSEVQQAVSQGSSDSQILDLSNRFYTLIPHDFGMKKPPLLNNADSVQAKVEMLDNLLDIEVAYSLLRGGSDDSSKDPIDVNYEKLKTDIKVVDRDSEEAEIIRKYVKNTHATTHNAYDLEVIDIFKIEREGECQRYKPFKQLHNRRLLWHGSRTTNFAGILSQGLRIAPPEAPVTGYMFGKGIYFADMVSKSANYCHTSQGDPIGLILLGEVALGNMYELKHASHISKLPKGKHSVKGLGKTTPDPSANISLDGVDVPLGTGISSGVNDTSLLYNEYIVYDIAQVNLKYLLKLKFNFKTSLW
row,Ki [nM],SMILES
1,210,"O=C(c1cccc(-c2cc(Cc3n[nH]c(=O)c4c3CCCC4)ccc2F)c1)N1CCCC1 [Example 250, 4-((6-fluoro-3′-(pyrrolidin-1-ylcarbonyl)-1,1′-biphenyl-3-yl)methyl)-5,6,7,8-tetrahydrophthalazin-1(2H)-one]"
2,4,"CN(C(=O)c1cc(Cc2n[nH]c(=O)c3c2NCCC3)ccc1F)C1CCN(C(=O)c2ccncc2)CC1 [Example 712, 2-fluoro-N-(1-isonicotinoylpiperidin-4-yl)-N-methyl-5-[(5-oxo-1,2,3,4,5,6-hexahydropyrido[2,3-d]pyridazin-8-yl)methyl]benzamide]"
3,28,"Cc1ccc(CCNC(=O)c2cccc(Cc3n[nH]c(=O)c4c3CCCC4)c2)cc1 [Example 378, N-(2-(4-methylphenyl)ethyl)-3-((4-oxo-3,4,5,6,7,8-hexahydrophthalazin-1-yl)methyl)benzamide]"
4,26,"O=C(NCc1ccsc1)c1cccc(Cc2n[nH]c(=O)c3c2CCCC3)c1 [Example 310, 3-((4-oxo-3,4,5,6,7,8-hexahydrophthalazin-1-yl)methyl)-N-(thien-3-ylmethyl)benzamide]"
5,85,"O=C(Cc1ccccn1)Nc1cccc(Cc2n[nH]c(=O)c3c2CCCC3)c1 [Example 215, N-(3-((4-oxo-3,4,5,6,7,8-hexahydrophthalazin-1-yl)methyl)phenyl)-2-pyridin-2-ylacetamide]"
6,21,"O=C1CCN1c1cc(Cc2n[nH]c(=O)c3c2CCCC3)ccn1 [Example 101, 4-((2-(2-oxoazetidin-1-yl)pyridin-4-yl)methyl)-5,6,7,8-tetrahydrophthalazin-1(2H)-one]"
7,1.3,"O=C(c1cc(Cc2n[nH]c(=O)c3c2CCCC3)ccc1F)N1CCN(S(=O)(=O)c2ccccc2)CC1 [Example 574, 4-(4-fluoro-3-{[4-(phenylsulfonyl)piperazin-1-yl]carbonyl}benzyl)-5,6,7,8-tetrahydrophthalazin-1(2H)-one]"
8,116,"O=C(COc1ccccc1)N1CCNC(Cc2n[nH]c(=O)c3c2CCCC3)C1 (stereo not shown) [Example 292, 4-((4-(phenoxyacetyl)piperazin-2-yl)methyl)-5,6,7,8-tetrahydrophthalazin-1(2H)-one]"
9,2030,"O=c1[nH]nc(Cc2cccc(NS(=O)(=O)c3ccco3)c2)c2c1CCCC2 [Example 118, N-(3-((4-oxo-3,4,5,6,7,8-hexahydrophthalazin-1-yl)methyl)phenyl)furan-2-sulfonamide]"
10,8,"O=C(c1cccc(Cc2n[nH]c(=O)c3c2CCCC3)c1)N1CCN(CCO)CC1 [Example 439, 4-(3-((4-(2-hydroxyethyl)piperazin-1-yl)carbonyl)benzyl)-5,6,7,8-tetrahydrophthalazin-1(2H)-one]"
11,65,"O=C(Nc1cccc(Cc2n[nH]c(=O)c3c2CCCC3)c1)c1ncccc1O [Example 212, 3-hydroxy-N-(3-((4-oxo-3,4,5,6,7,8-hexahydrophthalazin-1-yl)methyl)phenyl)pyridine-2-carboxamide]"
12,2.8,"O=C(c1ccccn1)N1CCCN(C(=O)c2cc(Cc3n[nH]c(=O)c4c3NCCC4)ccc2F)CC1 [Example 684, 8-(4-fluoro-3-{[4-(pyridin-2-ylcarbonyl)-1,4-diazepan-1-yl]carbonyl}benzyl)-2,3,4,6-tetrahydropyrido[2,3-d]pyridazin-5(1H)-one]"
13,1,"O=C(NC1CCN(C(=O)c2cc(Cc3n[nH]c(=O)c4c3NCCC4)ccc2F)CC1)c1ccncc1 [Example 748, N-(1-{2-fluoro-5-[(5-oxo-1,2,3,4,5,6-hexahydropyrido[2,3-d]pyridazin-8-yl)methyl]benzoyl}piperidin-4-yl)isonicotinamide]"
14,303,"Nc1cc(Cc2n[nH]c(=O)c3c2CCCC3)ccc1O [Example 280, 4-(3-amino-4-hydroxybenzyl)-5,6,7,8-tetrahydrophthalazin-1(2H)-one]"
15,101,"C[S+]([O-])c1nccc(Cc2n[nH]c(=O)c3c2CCCC3)n1 (stereo not shown) [Example 70, 4-((2-(methylsulfinyl)pyrimidin-4-yl)methyl)-5,6,7,8-tetrahydrophthalazin-1(2H)-one]"
16,185,"Nc1cc(Cc2n[nH]c(=O)c3c2CCCC3)ccc1Cl [Example 278, 4-(3-amino-4-chlorobenzyl)-5,6,7,8-tetrahydrophthalazin-1(2H)-one]"
17,467,"COc1ccc(Cc2n[nH]c(=O)c3c2CCCC3)cc1N [Example 279, 4-(3-amino-4-methoxybenzyl)-5,6,7,8-tetrahydrophthalazin-1(2H)-one]"

# Further lines, the compound ahead of its results:
row,SMILES,Ki [nM]
1,"O=C(NC1CCN(C(=O)c2cc(Cc3n[nH]c(=O)c4c3NCCC4)ccc2F)CC1)c1cscn1 [Example 751, N-(1-{2-fluoro-5-[(5-oxo-1,2,3,4,5,6-hexahydropyrido[2,3-d]pyridazin-8-yl)methyl]benzoyl}piperidin-4-yl)-1,3-thiazole-4-carboxamide]",1.5
2,"Cc1c(F)cccc1C(=O)Nc1cccc(Cc2n[nH]c(=O)c3c2CCCC3)c1 [Example 178, 3-fluoro-2-methyl-N-(3-((4-oxo-3,4,5,6,7,8-hexahydrophthalazin-1-yl)methyl)phenyl)benzamide]",462
3,"O=C(c1cc(Cc2n[nH]c(=O)c3c2CCCC3)ccc1F)N1CCN(C(=O)[C@@H]2CSCN2)CC1 [Example 727, 4-[4-fluoro-3-({4-[(4R)-1,3-thiazolidin-4-ylcarbonyl]piperazin-1-yl}carbonyl)benzyl]-5,6,7,8-tetrahydrophthalazin-1(2H)-one]",1.4
4,"O=C(c1cc(Cc2n[nH]c(=O)c3c2CCCC3)ccc1F)N1CCN(c2cnccn2)CC1 [Example 496, 4-{4-fluoro-3-[(4-pyrazin-2-ylpiperazin-1-yl)carbonyl]benzyl}-5,6,7,8-tetrahydrophthalazin-1(2H)-one]",0.8
5,"O=C(c1cc[nH]n1)N1CCCN(C(=O)c2cc(Cc3n[nH]c(=O)c4c3NCCC4)ccc2F)CC1 [Example 702, 8-(4-fluoro-3-{[4-(1H-pyrazol-3-ylcarbonyl)-1,4-diazepan-1-yl]carbonyl}benzyl)-2,3,4,6-tetrahydropyrido[2,3-d]pyridazin-5(1H)-one]",2.1
6,"CCNC(=O)c1cccc(Cc2n[nH]c(=O)c3c2CCCC3)n1 [Example 81, N-ethyl-6-((4-oxo-3,4,5,6,7,8-hexahydrophthalazin-1-yl)methyl)pyridine-2-carboxamide]",123
7,"CCOc1ccc(C(=O)Nc2cccc(Cc3n[nH]c(=O)c4c3CCCC4)c2)cc1 [Example 228, 4-ethoxy-N-(3-((4-oxo-3,4,5,6,7,8-hexahydrophthalazin-1-yl)methyl)phenyl)benzamide]",98
8,"O=C(c1cc(Cc2n[nH]c(=O)c3c2CCCC3)ccc1F)N1CCN(Cc2cccc(Cl)c2)CC1 [Example 514, 4-(3-{[4-(3-chlorobenzyl)piperazin-1-yl]carbonyl}-4-fluorobenzyl)-5,6,7,8-tetrahydrophthalazin-1(2H)-one]",9
9,"O=C(c1cscn1)N1CCCN(C(=O)c2cc(Cc3n[nH]c(=O)c4c3NCCC4)ccc2F)CC1 [Example 703, 8-(4-fluoro-3-{[4-(1,3-thiazol-4-ylcarbonyl)-1,4-diazepan-1-yl]carbonyl}benzyl)-2,3,4,6-tetrahydropyrido[2,3-d]pyridazin-5(1H)-one]",2.3
10,"O=C(Nc1cccc(Cc2n[nH]c(=O)c3c2CCCC3)c1)c1cncs1 [Example 206, N-(3-((4-oxo-3,4,5,6,7,8-hexahydrophthalazin-1-yl)methyl)phenyl)-1,3-thiazole-5-carboxamide]",18
11,"COc1ccc(NC(=O)c2cccc(Cc3n[nH]c(=O)c4c3CCCC4)c2)cc1O [Example 353, N-(3-hydroxy-4-methoxyphenyl)-3-((4-oxo-3,4,5,6,7,8-hexahydrophthalazin-1-yl)methyl)benzamide]",59
12,"Cc1cc(F)ccc1NC(=O)c1cccc(Cc2n[nH]c(=O)c3c2CCCC3)c1 [Example 340, N-(4-fluoro-2-methylphenyl)-3-((4-oxo-3,4,5,6,7,8-hexahydrophthalazin-1-yl)methyl)benzamide]",279
13,"Cc1ccc(Cc2n[nH]c(=O)c3c2CCCC3)cc1N [Example 281, 4-(3-amino-4-methylbenzyl)-5,6,7,8-tetrahydrophthalazin-1(2H)-one]",309
14,"O=C(CNC(=O)OCc1ccccc1)Nc1cccc(CCc2n[nH]c(=O)c3c2CCCC3)c1 [Example 320, benzyl 2-oxo-2-(3-(2-(4-oxo-3,4,5,6,7,8-hexahydrophthalazin-1-yl)ethyl)phenylamino)ethylcarbamate]",165
15,"O=c1[nH]nc(Cc2cc[n+]([O-])c(Br)c2)c2c1CCCC2 [Example 132, 4-((2-bromo-1-oxidopyridin-4-yl)methyl)-5,6,7,8-tetrahydrophthalazin-1(2H)-one]",1040
16,"CN(C)CCCN1CCCN(C(=O)c2cc(Cc3n[nH]c(=O)c4c3NCCC4)ccc2F)C1 [Example 604, 8-(3-{[3-[3-(dimethylamino)propyl]tetrahydropyrimidin-1(2H)-yl]carbonyl}-4-fluorobenzyl)-2,3,4,6-tetrahydropyrido[2,3-d]pyridazin-5(1H)-one]",15
17,"O=C(c1cnc2ccccc2c1)N1CCN(C(=O)c2cc(Cc3n[nH]c(=O)c4c3NCCC4)ccc2F)CC1 [Example 657, 8-(4-fluoro-3-{[4-(quinolin-3-ylcarbonyl)piperazin-1-yl]carbonyl}benzyl)-2,3,4,6-tetrahydropyrido[2,3-d]pyridazin-5(1H)-one]",0.8
18,"O=c1[nH]nc(Cc2ccc(-c3ccc(Cc4n[nH]c(=O)c5c4CCCC5)cn3)nc2)c2c1CCCC2 [Example 109, 4-((5′-((4-oxo-3,4,5,6,7,8-hexahydrophthalazin-1-yl)methyl)-2,2′-bipyridin-5-yl)methyl)-5,6,7,8-tetrahydrophthalazin-1(2H)-one]",609
19,"O=C(c1ccc2ccccc2n1)N1CCCN(C(=O)c2cc(Cc3n[nH]c(=O)c4c3NCCC4)ccc2F)CC1 [Example 687, 8-(4-fluoro-3-{[4-(quinolin-2-ylcarbonyl)-1,4-diazepan-1-yl]carbonyl}benzyl)-2,3,4,6-tetrahydropyrido[2,3-d]pyridazin-5(1H)-one]",4.2

# Same assay, conditions: read-out: PARP-1 (Ki); Table 2; A2 is C1-alkyl versus no A2 (bond)
row,Ki [nM],SMILES
1,291,O=C1CCN1c1cc(-c2n[nH]c(=O)c3c2CCCC3)ccc1F
